The values below come from patent US20250123269A1 (priority 2023, published 2025).

Experiment [1] has as its system SARS-COV-2 B.1.617.2 delta. It counts as cell-based.
Experiment [2] has as its system SARS-COV-2 B.1.1.529 omicron. It counts as cell-based.

Turning to `O=c1nc(NO)ccn1[C@@H]1O[C@H](CO)[C@@H](O)[C@H]1O` [EIDD-1931], in experiment [1], the “dose-dependent inhibition of infection” value is “dose-dependent inhibition of infection”, the inhibition of infection entry is on record as “complete inhibition” and the reduction of infection entry is “at least 50%”. For the same compound, in experiment [2], the “dose-dependent inhibition of infection” value was “dose-dependent inhibition of infection”, the inhibition of infection result was “complete inhibition” and the reduction of infection result is given as “at least 50%”.
In the case of `Cc1c(O)cccc1C(=O)N[C@@H](CSc1ccccc1)[C@H](O)CN1C[C@H]2CCCC[C@H]2C[C@H]1C(=O)NC(C)(C)C` [nelfinavir], the “dose-dependent inhibition of infection” value in experiment [1] and in experiment [2] was “dose-dependent inhibition of infection” throughout. Moreover, the inhibition of infection entry in experiment [1] and in experiment [2] was “did not completely inhibit infection” each time.
As for `CC(C)(C)[C@H](NC(=O)C(F)(F)F)C(=O)N1C[C@H]2[C@@H]([C@H]1C(=O)N[C@H](C#N)C[C@@H]1CCNC1=O)C2(C)C` [nirmatrelvir, Nirmatrelvir], in experiment [1], the “dose-dependent inhibition of infection” value is “dose-dependent inhibition of infection” and the reduction of infection is given as 50%. Further, in experiment [2], the “dose-dependent inhibition of infection” value was “dose-dependent inhibition of infection” and the inhibition of infection result was “nearly completely inhibited”.
